Test results taken from publication PMC9090415, “Discovery of small molecule inhibitors of Plasmodium falciparum apicoplast DNA polymerase” (Journal of Enzyme Inhibition and Medicinal Chemistry, 2022).

Target: P. falciparum apicoplast DNA polymerase (Pf-apPOL) (Plasmodium falciparum, UniProt Q8ILY1)
Assay: Fluorescence-based high-throughput DNA polymerase assay (molecular beacon), primary screen and dose-response
Type: biochemical
Conditions: for DNA Pol: 90 min, 10 µM; for % inhibition apPOL 180' 2.5 / % inhibition apPOL 180' 5 / % inhibition apPOL 180' 10 / % inhibition apPOL 180' 20 / % inhibition apPOL 180' 40 / % inhibition apPOL 180' 80: read at 180'
How it was run: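 Single-point screening used 10 µM compound with 20 nM polymerase, 20 nM hairpin substrate and 6 µM dNTPs for 90 min at 25 °C. Confirmatory titrations (2.5–80 µM) followed fluorescence at three times, and IC50 was derived from a fit including a cooperativity term n.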

Chain of P. falciparum apicoplast DNA polymerase (Pf-apPOL) (Q8ILY1 entry or part of it): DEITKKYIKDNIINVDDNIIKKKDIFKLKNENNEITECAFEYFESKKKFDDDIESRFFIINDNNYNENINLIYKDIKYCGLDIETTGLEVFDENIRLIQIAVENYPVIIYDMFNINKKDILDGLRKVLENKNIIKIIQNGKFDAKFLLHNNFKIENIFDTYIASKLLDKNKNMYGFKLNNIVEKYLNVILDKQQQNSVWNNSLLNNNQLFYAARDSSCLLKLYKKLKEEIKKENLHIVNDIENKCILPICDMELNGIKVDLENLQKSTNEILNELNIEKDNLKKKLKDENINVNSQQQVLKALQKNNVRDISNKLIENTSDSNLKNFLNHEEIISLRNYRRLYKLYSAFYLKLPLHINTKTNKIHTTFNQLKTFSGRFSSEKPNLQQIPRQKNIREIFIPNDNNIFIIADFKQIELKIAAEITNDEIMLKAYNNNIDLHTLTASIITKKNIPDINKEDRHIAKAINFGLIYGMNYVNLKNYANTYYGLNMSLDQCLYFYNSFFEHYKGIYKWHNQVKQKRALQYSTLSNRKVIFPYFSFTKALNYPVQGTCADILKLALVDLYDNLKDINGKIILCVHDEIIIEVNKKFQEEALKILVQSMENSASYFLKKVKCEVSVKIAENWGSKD

With `Cc1ccc(C)n1-c1ccc(C(=O)NNC(=O)c2ccc3nccnc3c2)cc1` [Molecule 53, O=C(c1ccc(cc1)n1c(C)ccc1C)NNC(=O)c1ccc2c(c1)nccn2] the “DNA Pol” value ("DNA Pol" of the 186 hits list (screen value)) was 84, the “% inhibition Apo pol 10'” value (DRC-1, concentration 2.5) was 0.1394% and the “% inhibition Apo pol 10'” value (DRC-1, concentration 5) was 8.124%. For the same compound, the “% inhibition Apo pol 10'” value (DRC-1, concentration 10) was 19.7971%, the “% inhibition Apo pol 10'” value (DRC-1, concentration 20) was 46.3145% and the “% inhibition Apo pol 10'” value (DRC-1, concentration 40) was 80.1476%. The “% inhibition Apo pol 10'” value (DRC-1, concentration 80) was 83.7947%, the “% inhibition Apol 90'” value (DRC-1, concentration 2.5) was -3.841% and the “% inhibition Apol 90'” value (DRC-1, concentration 5) was -1.933%. The “% inhibition Apol 90'” value (DRC-1, concentration 10) was 7.019%, the “% inhibition Apol 90'” value (DRC-1, concentration 20) was 31.5983% and the “% inhibition Apol 90'” value (DRC-1, concentration 40) was 69.8424%. The “% inhibition Apol 90'” value (DRC-1, concentration 80) was 79.5478%, the “% inhibition apPOL 180'” value (DRC-1, concentration 2.5) was -5.424% and the “% inhibition apPOL 180'” value (DRC-1, concentration 5) was -7.03%. For the same compound, the “% inhibition apPOL 180'” value (DRC-1, concentration 10) was 0.2997%, the “% inhibition apPOL 180'” value (DRC-1, concentration 20) was 17.1559% and the “% inhibition apPOL 180'” value (DRC-1, concentration 40) was 57.2023%. The “% inhibition apPOL 180'” value (DRC-1, concentration 80) was 72.0846%, the “% inhibition Apo pol 5'” value (DRC-2, concentration 2.5) was 0% and the “% inhibition Apo pol 5'” value (DRC-2, concentration 5) was 1.67%. For the same compound, the “% inhibition Apo pol 5'” value (DRC-2, concentration 10) was 25%, the “% inhibition Apo pol 5'” value (DRC-2, concentration 20) was 46% and the “% inhibition Apo pol 5'” value (DRC-2, concentration 40) was 55%. The “% inhibition Apo pol 5'” value (DRC-2, concentration 80) was 57%, the “% inhibition Apol 40'” value (DRC-2, concentration 2.5) was 3.18% and the “% inhibition Apol 40'” value (DRC-2, concentration 5) was 2%. The “% inhibition Apol 40'” value (DRC-2, concentration 10) was 23%, the “% inhibition Apol 40'” value (DRC-2, concentration 20) was 50% and the “% inhibition Apol 40'” value (DRC-2, concentration 40) was 64%. For the same compound, the “% inhibition Apol 40'” value (DRC-2, concentration 80) was 72%, the “% inhibition ApPOL 90'” value (DRC-2, concentration 2.5) was 0.241% and the “% inhibition ApPOL 90'” value (DRC-2, concentration 5) was 1.15%. The “% inhibition ApPOL 90'” value (DRC-2, concentration 10) was 18%, the “% inhibition ApPOL 90'” value (DRC-2, concentration 20) was 47% and the “% inhibition ApPOL 90'” value (DRC-2, concentration 40) was 64%. For the same compound, the “% inhibition ApPOL 90'” value (DRC-2, concentration 80) was 74%, the “% inhibition apPOL 180'” value (DRC-2, concentration 2.5) was -1.53% and the “% inhibition apPOL 180'” value (DRC-2, concentration 5) was -2.77%. The “% inhibition apPOL 180'” value (DRC-2, concentration 10) was 10%, the “% inhibition apPOL 180'” value (DRC-2, concentration 20) was 37% and the “% inhibition apPOL 180'” value (DRC-2, concentration 40) was 56%. For the same compound, the “% inhibition apPOL 180'” value (DRC-2, concentration 80) was 73% and the “DNA Pol” value (primary screen value, DNA Pol) was 84.
For `O=C1CSC2=NC3=C(CCc4ccccc43)C(c3cccs3)N12` (centres unmarked) [Molecule 59, O=C1CSC2=NC3=C(C(N12)c1cccs1)CCc1c3cccc1], the “DNA Pol” value (186 hits, DNA Pol (screen value), unit not given) was 63, the “DNA Pol” value ('DNA Pol' (screen value), unit not given) was 63 and the “% inhibition Apo pol 10' 2.5” value (DRC-1, read at 10', concentration 2.5) was 4.043%. The “% inhibition Apo pol 10' 5” value (DRC-1, read at 10', concentration 5) was 24.0896%, the “% inhibition Apo pol 10' 10” value (DRC-1, read at 10', concentration 10) was 41.1279% and the “% inhibition Apo pol 10' 20” value (DRC-1, read at 10', concentration 20) was 53.1812%. For the same compound, the “% inhibition Apo pol 10' 40” value (DRC-1, read at 10', concentration 40) was 67.0288%, the “% inhibition Apo pol 10' 80” value (DRC-1, read at 10', concentration 80) was 63.2791% and the “% inhibition Apol 90' 2.5” value (DRC-1, read at 90', concentration 2.5) was -1.656%. For the same compound, the “% inhibition Apol 90' 5” value (DRC-1, read at 90', concentration 5) was 10.7696%, the “% inhibition Apol 90' 10” value (DRC-1, read at 90', concentration 10) was 22.0098% and the “% inhibition Apol 90' 20” value (DRC-1, read at 90', concentration 20) was 35.5266%. For the same compound, the “% inhibition Apol 90' 40” value (DRC-1, read at 90', concentration 40) was 60.0258%, the “% inhibition Apol 90' 80” value (DRC-1, read at 90', concentration 80) was 67.4831% and the “% inhibition apPOL 180' 2.5” value (DRC-1, concentration 2.5) was -6.428%. For the same compound, the “% inhibition apPOL 180' 5” value (DRC-1, concentration 5) was -0.2424%, the “% inhibition apPOL 180' 10” value (DRC-1, concentration 10) was 9.04% and the “% inhibition apPOL 180' 20” value (DRC-1, concentration 20) was 18.673%. The “% inhibition apPOL 180' 40” value (DRC-1, concentration 40) was 46.5795%, the “% inhibition apPOL 180' 80” value (DRC-1, concentration 80) was 61.292% and the “% inhibition Apo pol 5'” value (DRC-2, concentration 10) was 28%. For the same compound, the “% inhibition Apol 40'” value (DRC-2, concentration 10) was 28%, the “% inhibition Apol 40'” value (DRC-2, concentration 40) was 45% and the “% inhibition ApPOL 90'” value (DRC-2, concentration 40) was 45%. For the same compound, the “% inhibition Apo pol 5' 2.5” value (DRC-2, read at 5', concentration 2.5) was 3.73%, the “% inhibition Apo pol 5' 5” value (DRC-2, read at 5', concentration 5) was 15% and the “% inhibition Apo pol 5' 10” value (DRC-2, read at 5', concentration 10) was 28%. For the same compound, the “% inhibition Apo pol 5' 20” value (DRC-2, read at 5', concentration 20) was 33%, the “% inhibition Apo pol 5' 40” value (DRC-2, read at 5', concentration 40) was 31% and the “% inhibition Apo pol 5' 80” value (DRC-2, read at 5', concentration 80) was 23%. The “% inhibition Apol 40' 2.5” value (DRC-2, read at 40', concentration 2.5) was 3%, the “% inhibition Apol 40' 5” value (DRC-2, read at 40', concentration 5) was 14% and the “% inhibition Apol 40' 10” value (DRC-2, read at 40', concentration 10) was 28%. The “% inhibition Apol 40' 20” value (DRC-2, read at 40', concentration 20) was 39%, the “% inhibition Apol 40' 40” value (DRC-2, read at 40', concentration 40) was 45% and the “% inhibition Apol 40' 80” value (DRC-2, read at 40', concentration 80) was 48%. For the same compound, the “% inhibition ApPOL 90' 2.5” value (DRC-2, read at 90', concentration 2.5) was -1.13%, the “% inhibition ApPOL 90' 5” value (DRC-2, read at 90', concentration 5) was 10% and the “% inhibition ApPOL 90' 10” value (DRC-2, read at 90', concentration 10) was 22%. The “% inhibition ApPOL 90' 20” value (DRC-2, read at 90', concentration 20) was 35%, the “% inhibition ApPOL 90' 40” value (DRC-2, read at 90', concentration 40) was 45% and the “% inhibition ApPOL 90' 80” value (DRC-2, read at 90', concentration 80) was 52%. For the same compound, the “% inhibition apPOL 180' 2.5” value (DRC-2, concentration 2.5) was -8%, the “% inhibition apPOL 180' 5” value (DRC-2, concentration 5) was 2.64% and the “% inhibition apPOL 180' 10” value (DRC-2, concentration 10) was 11%. The “% inhibition apPOL 180' 20” value (DRC-2, concentration 20) was 24%, the “% inhibition apPOL 180' 40” value (DRC-2, concentration 40) was 38% and the “% inhibition apPOL 180' 80” value (DRC-2, concentration 80) was 55%.
